This note sets out measurements from patent publication US10501453B2, “Benzothiazole or benzoxazole compounds as SUMO activators” (Icahn School of Medicine at Mount Sinai, priority 2012, dated 2019).

The test system of test [1] is adult rat ventricular myocytes (ARVMs). As to the kind of experiment: Cell shortening/re-lengthening and calcium transient of ARVMs (IonOptix). The test is classed as cell-based. The procedure:
Calcium-tolerant adult rat ventricular myocytes (ARVMs) were obtained from hearts of male Sprague-Dawley rats (250 to 300 g). The heart was excised and perfused with a standard enzymatic technique. ARVMs were plated on multi-chambered plates or culture dishes, pre-coated with laminin 2 μg/cm^2, at a density of 10^5 cells/cm^2 in DMEM without L-glutamine supplemented with 10 mmol/l HEPES, 3.7 mg/ml NaHCO3, 1 mg/ml glucose, 0.11 mg/ml sodium pyruvate, 2 mg/ml bovine serum albumin, 2 mmol/1 L-camitine, 5 mmol/1 creatine, 5 mmol/1 taurine, 1% penicillin-streptomycin, and 1% gentamycin. Following isolation, cells were allowed to settle for 1 hour. Cultures were incubated at 37° C., in an atmosphere of 5% CO2-95% air. Fresh medium was added gently as medium was being drawn off until the cultures had been thoroughly washed. Only quiescent, rod-shape cardiac myocytes were selected for IonOptix experiments.
Each compound was added at 10 μM. DMSO was used as a control. After 24 hours at 37° C., SERCA2a SUMOylation and functional analysis were determined.
Mechanical properties of ARVMs were assessed using an IonOptix MyoCam® system (IonOptix, Milton, Mass.). In brief, cells were placed in a Warner chamber mounted on the stage of an inverted microscope (Olympus, IX-70) and superfused (1 ml/min at 30° C.) with a buffer containing 131 mM NaCl, 4 mM KCl, 1 mM CaCh, 1 mM MgCh, 10 mM glucose, and 10 mM HEPES, pH 7.4. ARVMs were field stimulated with suprathreshold voltage and at a frequency of 0.5 Hz. […] SoftEdge software (IonOptix) was used to capture changes in cell length during shortening and re-lengthening.
ARVMs were placed in a chamber on an Olympus IX-70 inverted microscope and imaged through a Fluor 40× oil objective. ARVMs were exposed to light emitted by a 75 W lamp and passed through either a 360 or a 380 nm filter (bandwidths were ±15 nm), while being stimulated to contract at 0.5 Hz. Fluorescence emissions were detected between 480 and 520 nm by a photomultiplier tube after first illuminating cells at 360 nm for 0.5 s then at 380 nm for the duration of the recording protocol (333 Hz sampling rate). The 360 nm excitation scan was repeated at the end of the protocol and qualitative changes in intracellular Ca^2+ concentration ((Ca^2+]i) were inferred from the ratio of the fluorescence intensity at two wavelengths.
The effects of the Example compound was examined on isolated rat cardiomyocytes shortening and relaxation parameters. […] Effects of Example 1 on mechanical properties of the ARVMs were assessed using a video-based edge detection system (IonOptix). The time constant of the increase of force during the stretch decreased (tau), percentage of peak shortening (PS), maximal rate of relaxation and contraction were analyzed at 24 hrs postincubation of the compounds in culture media (N=10 ARVMs). The mechanical data were analyzed with student's t-test (FIG. 2A, P<0.05 compared to the DMSO treated cells). SERCA2a SUMOylation profiling was analyzed in a same set of ARVMs (FIG. 2B, WCL, whole cell lysates; S-SERCA2a, SUMOylated SERCA2a).

For another test, the target named is SUMO E2 enzyme, UBC9. As to the kind of experiment: Transfer of activated SUMO-1 from SUMO E1 to SUMO E2 enzyme UBC9 (gel-based assay). The test is classed as biochemical.
Another test concerns sham-operated animals. As to the kind of experiment: Hemodynamics in sham-operated mice. Type of test: in vivo, mouse. The procedure: Hemodynamics were measured to evaluate the acute effect of Example 1 infusion on the cardiac function of the mouse model of HF. In the first set of experiments, mice were exposed to pressure overload by thoracic aortic constriction (TAC) or sham operation and received either EXAMPLE 1 or vehicle. At two months post-TAC animals developed HF. […] In addition, the positive chronotropic effect of dobutamine was no longer observed in TAC mice (FIG. 9). Following cannulation of the carotid artery and external jugular vein, infusion of EXAMPLE 1 or vehicle was performed as described in Method section. Pressure and conductance catheters were introduced in the LV through the carotid artery. Pressure and volume measurements were made simultaneously and pressure volume curves were constructed as the vehicle or EXAMPLE 1 were infused.
Hemodynamic data were obtained in 1 mg of EXAMPLE 1-treated failing hearts at 30 min and 60 min after compound treatment. […] The improvement occurred within 30 minutes after treatment and maintained for 60 minutes after treatment. […] The effects of EXAMPLE 1 on various hemodynamic parameters are shown in FIG. 9b and Table S1. dP/dt max increased with increasing concentration of EXAMPLE 1 while Tau a parameter of relaxation decreased an indication of enhanced relaxation.

The subject of another test is Serca2 KO mice. As to the kind of experiment: Hemodynamics in Serca2 knockout mice. Type of test: in vivo, mouse. To be noted: before vs after infusion. The text has this:
Adult mice with an inducible cardiomyocyte-specific excision of the Atp2a2 (Serca2) gene (Serca2 KO) were used. Four weeks after induction of Serca2 gene excision, the mice display a substantial reduction in systolic and diastolic function (FIG. 11a). […] The decay constant, tau value was nearly 1.3-fold (Serca2 KO, […]; WT, […], p<0.001) larger in Serca2 KO mice compared with WT control (FIG. 11b). The expression of SERCA2a was completely lacking in Serca2 KO mice (FIG. 11c).
Hemodynamic parameters obtained before and after infusion of Example 1 were compared. […] The dose-dependent enhancement of cardiac contractility disappeared in Serca2 KO mice (FIG. 6b).

The test system of test [2] is adult rat ventricular myocytes (ARVMs). As to the kind of experiment: Cell shortening/re-lengthening and calcium transient of ARVMs (IonOptix). Type of test: cell-based. The source holds these as a separate data set.

For `COc1ccc(-c2nnc(Nc3nc4c(OC)cccc4s3)o2)cc1` [Example 1, N-(4-methoxybenzo[d]thiazol-2-yl)-5-(4-methoxyphenyl)-1,3,4-oxadiazol-2-amine], the “Tau value (dose response)” value came to 1.0 ± 0.1 ms in test [1] (10 μM), 1.3 ± 0.0 ms in test [2] (0.1 μM) and 1300 ± 100 ms in test [2] (1 μM). For the same molecule, the “effects on mechanical properties of ARVMs (inotropic, lusitropic)” value in test [1] (24 hrs, versus DMSO) was “positive inotropic and lusitropic effects”. Besides, the “Tau (rate of transient calcium decay)” value in test [1] (isolated adult cardiomyocytes, DMSO 2.4±0.2, n=10) came out at 1.8 ± 0.2 ms. In addition, the Peak shortening in test [1] (isolated adult cardiomyocytes, DMSO 3.0±0.8, n=10) turned out to be 12.0±0.8%. In addition, the “Maximal rate of relaxation” value in test [1] (isolated adult cardiomyocytes, DMSO 54.0±2.4, n=10) is 210.7±19.4 μm/sec. In addition, the “Maximal rate of contraction” value in test [1] (isolated adult cardiomyocytes, DMSO −64.0±7.9, n=10) is given as −185.5±6.5 μm/sec. This molecule also registered an EC50 at SUMO E2 enzyme, UBC9 of 10.2 ± 0.28 µM. In the test on sham-operated animals, the “hemodynamic parameters in sham-operated groups” value was “No statistically significant changes”. In the test on Serca2 KO mice, the “hemodynamic parameters in Serca2 KO mice” value was “did not induce any improvements”. Besides, in test [2] (concentration dependent manner, versus DMSO), the “cell contractility (peak shortening), dose response” value was “significantly increased cell contractility”.

A word on the EC50: it is the concentration that produces a half-maximal response. A high value points to weaker potency.
